The source of these data is US4191698A, “Tricyclopentyltin fluoride” (priority 1977, dated 1980).

Common to all, as to assay type: in vivo
Data set [1] has as its system wheat. In words: Phytotoxicity to host plant in wheat leaf rust test (rating 0-2). Also noted: key: 0: indicates no phytotoxicity; 1: indicates that the degree of phytotoxicity was sufficient to make the plant commercially worthless; 2: indicates that the plant was killed. The note with it: 300 ppm. Here is the method:
(§1) The efficacy of tricyclopentyltin fluoride as a control agent for three different plant fungi (grape downy mildew, apple powdery mildew and wheat leaf rust) was evaluated and compared with the performance of several other tricyclopentyltin compounds. The results of this evaluation are disclosed in the following tables 2, 3 and 4. The phytotoxicity of the various compounds tested was also evaluated at various concentration levels. […] Quantitative ratings for phytotoxicity are given in each of the first three tables. A rating of 0 indicates no phytotoxicity.
(§2) Host plants, (grape, wheat or apple, depending upon the fungus) are sprayed with a water suspension of the test compound and then inoculated with the pathogen. A number of control plants that have not been sprayed are also inoculated. After disease symptoms are well developed on the untreated control plants the test plants are graded for disease control.

Data set [2] deals with wheat. Put plainly: Phytotoxicity applied to wheat (scale 0-5). Also noted: key: 0: no phytotoxicity; 1: very slight injury, the minimum that could be observed; 2: less than 10% of leaf surface injured; 3: 10-50% of leaf surface injured; 4: 50-90% of leaf surface injured; 5: plant killed. As to the method:
(§3) The phytotoxicity of a number of tricyclopentyltin compounds and triphenyltin hydroxide on grape vines, wheat and barley was evaluated quantitatively using the following scale:
(§4) If the rating was considered to be somewhere between two integers based on observations of other plants, the lower integer followed by "0.5" was employed as the rating.

The subject of data set [3] is Grape Downy Mildew (Plasmopara viticola). In words: Grape downy mildew control (Procedure 3).
Excerpt: (§5) PROCEDURE 3--Employed Using Grape Downy Mildew (Plasmopara viticola), Wheat Leaf Rust (Puccinia recondita) and Apple Powdery Mildew (Podosphaera leucotricha)
as §2

The subject of data set [4] is Apple Powdery Mildew (Podosphaera leucotricha). Put plainly: Apple powdery mildew control (Procedure 3).
Excerpt: as §5, §2

The test system of another data set is Grape Vines. Put plainly: Phytotoxicity applied to grape vines (scale 0-5). Conditions: for Phytotoxicity: scale 0-5. Also noted: key to Phytotoxicity: 0: no phytotoxicity; 1: very slight injury, the minimum that could be observed; 2: less than 10% of leaf surface injured; 3: 10-50% of leaf surface injured; 4: 50-90% of leaf surface injured; 5: plant killed. As to the method: as §3, §4

For a further data set, the system named is grape. In words: Phytotoxicity to host plant in grape downy mildew test (rating 0-2). More on the design: key to Phytotoxicity: 0: indicates no phytotoxicity; 1: indicates that the degree of phytotoxicity was sufficient to make the plant commercially worthless; 2: indicates that the plant was killed. Conditions: for Phytotoxicity: rating 0-2. As to the method:
as §1, §2

A further data set deals with Barley. In words: Phytotoxicity applied to barley (scale 0-5). Also noted: key: 0: no phytotoxicity; 1: very slight injury, the minimum that could be observed; 2: less than 10% of leaf surface injured; 3: 10-50% of leaf surface injured; 4: 50-90% of leaf surface injured; 5: plant killed. Here is the method:
as §3, §4

For data set [5], the system named is Wheat Leaf Rust (Puccinia recondita). In words: Wheat leaf rust control (Procedure 3). The note with it: 300 ppm.
Excerpt: as §5, §2

Take `[Cl][Sn]([CH]1CCCC1)([CH]1CCCC1)[CH]1CCCC1` [Tricyclopentyltin chloride]: the Phytotoxicity was 2 with wheat [1], 1 with wheat [2] (75 ppm), 3 (10-50% of leaf surface injured) with wheat [2] (300 ppm) and 5 in the data set with wheat [2] (1200 ppm).

For the compound `[F][Sn]([CH]1CCCC1)([CH]1CCCC1)[CH]1CCCC1` [Tricyclopentyltin fluoride], the “control rating (comparison in words)” value in data set [3] (75 ppm) is recorded as “higher than the two other tricyclopentyltin compounds”. Also, in data set [3] (representative plant fungi of Tables 2-4), the “activity against representative plant fungi (comparison in words)” value was “highest activity against representative plant fungi of all the compounds tested”. Further, the “efficacy (comparison in words)” value in data set [4] (75 ppm) is on record as “considerably higher than the other compounds tested”. Further, the Phytotoxicity in the data set on Grape Vines (75 ppm) worked out at 0; in the data set with Grape Vines (300 ppm), 1.5; in the data set with Grape Vines (1200 ppm), 3.5; in the data set with grape (75 ppm), 0; in the data set with grape (300 ppm), 0; with Barley (38 ppm), 0. Further, the Phytotoxicity in the data set with Barley (150 ppm) is reported as 1; with Barley (600 ppm), 2 (less than 10% of leaf surface injured); in the data set with wheat [1] it was 0; in the data set with wheat [2] (75 ppm), 0; in the data set on wheat [2] (300 ppm), 0; in the data set with wheat [2] (1200 ppm) it was 1.5. Besides, in the data set with Grape Vines (Tables 5-7: grape vines, wheat and barley), the “damage to plants (comparison in words)” value was “least damaging to the plants”. In addition, the “phytotoxic effects (in words)” value in the data set with grape (300 ppm) is reported as “did not produce any phytotoxic effects”. The “control of wheat leaf rust (in words)” value in data set [5] is given as “effectively controlled wheat leaf rust”.

On to `[OH][Sn]([CH]1CCCC1)([CH]1CCCC1)[CH]1CCCC1` [Tricyclopentyltin hydroxide], for which the Phytotoxicity with Grape Vines (75 ppm) was 1; in the data set on Grape Vines (300 ppm) it was 2.5; in the data set on Grape Vines (1200 ppm) it was 4.5; in the data set with grape (75 ppm), 0; with grape (300 ppm) it was 1; in the data set on Barley (38 ppm), 1. Besides, the Phytotoxicity with Barley (150 ppm) is 2 (less than 10% of leaf surface injured); in the data set on Barley (600 ppm), 3.5; in the data set with wheat [1] it was 0; with wheat [2] (75 ppm) it was 0; in the data set on wheat [2] (300 ppm) it was 1; in the data set with wheat [2] (1200 ppm), 2.5.

As to `[OH][Sn]([c]1ccccc1)([c]1ccccc1)[c]1ccccc1` [Triphenyltin hydroxide], the “% Control” value worked out at 95% in data set [3] (75 ppm), 100% in data set [3] (300 ppm), 25% in data set [4] (75 ppm) and 25% in data set [5]. For the same compound, the “control rating (comparison in words)” value in data set [3] (75 ppm) was “higher control rating at this level”. The Phytotoxicity in the data set on Grape Vines (75 ppm) amounted to 2.5; in the data set on Grape Vines (300 ppm) it was 3.5; in the data set with Grape Vines (1200 ppm), 5; in the data set with grape (75 ppm), 1; in the data set with grape (300 ppm) it was 1; in the data set with Barley (38 ppm) it was 1. For the same compound, the Phytotoxicity in the data set on Barley (150 ppm) is 3 (10-50% of leaf surface injured); in the data set on Barley (600 ppm) it was 4 (50-90% of leaf surface injured); in the data set with wheat [1], 0. For the same compound, the “phytotoxicity (in words)” value in the data set on grape (75 ppm) is “too phytotoxic to be commercially useful”.

Turning to Tricyclopentyltin acetate, the “% Control” value in data set [4] (75 ppm) was 25%. For the same compound, the Phytotoxicity in the data set with Grape Vines (75 ppm) is 2 (less than 10% of leaf surface injured); in the data set on Grape Vines (300 ppm) it was 4 (50-90% of leaf surface injured); with Grape Vines (1200 ppm), 5; in the data set with Barley (38 ppm), 1; in the data set with Barley (150 ppm), 2 (less than 10% of leaf surface injured); in the data set on Barley (600 ppm) it was 3.5.

With Tricyclopentyltin benzoate, the “% Control” value in data set [3] (75 ppm) was 50%; in data set [3] (300 ppm), 75%. Besides, the Phytotoxicity in the data set with grape (75 ppm) worked out at 0; with grape (300 ppm), 1.

Regarding Tricyclopentyltin phenoxide, the “% Control” value is reported as 50% in data set [4] (75 ppm) and 83% in data set [4] (300 ppm).
